# Reference: patent US20110086886A2, “INSECTICIDAL ISOXAZOLINES” (Bayer CropScience AG, priority 2006, published 2011)
# Columns and labels:
# [1] = system: Aulacophora femoralis; experiment: Test for Aulacophora femoralis (spray test); format: in vivo; conditions: effective component concentration of 500 ppm; 2nd-instar, dipped cucumber leaves; after 7 days
# Method: (§1) In order to obtain a preparation of a proper active compound, 1 part by weight of an active compound was mixed with the stated amounts of solvent and emulsifier and the mixture was diluted to a specified concentration with water.
# The leaves of cucumbers were dipped in the aqueous solution diluted to a specified concentration with water. After the chemical solution was dried in air, these leaves were placed in a plastic cup, in which sterilized black soil was placed. 5 Aulacophora femoralis of the 2nd-instar were set free in the soil, to examine the number of dead insects after 7 days, thereby calculating the insecticidal ratio of the chemical solution.
# [2] = system: Spodoptera litura larvae; experiment: Test for Spodoptera litura larvae (leaf dip); format: in vivo; conditions: effective component concentration of 500 ppm, 3rd-instar larvae on dipped sweet potato leaves, after 7 days; for pest or weed control at 500 ppm: foliar, 168 h, read-out: insecticidal ratio
# Method: as §1
# The leaves of sweat potatoes were dipped in the test solution diluted to a specified concentration with water. After these leaves were dried in air to remove the chemical solution, they were placed in a Petri dish of 9 cm in diameter, in which 10 Spodoptera litura larvae of the 3rd-instar were set free. The Petri dish was placed in a thermostatic chamber kept at 25° C. and the leaves of sweat potatoes were added after 2 days and 4 days, to examine the number of dead larvae after 7 days, thereby calculating the insecticidal ratio of the chemical solution.
# In this test, an average of the results in two Petri dishes in one section was calculated.
Compound,insecticidal ratio [1],insecticidal ratio [2],pest or weed control at 500 ppm [2]
O=[N+]([O-])c1cc(C2=NOC(c3cccc(Cl)c3)(C(F)(F)F)C2)ccc1-n1cncn1 (racemic) [Compound 90],100%,100%,
FC(F)(F)C1(c2cc(Cl)cc(Cl)c2)CC(c2ccc(-n3cncn3)cc2)=NO1 (racemic) [Compound 91],100%,100%,
FC(F)(F)C1(c2cc(Cl)cc(Cl)c2)CC(c2ccc(-n3cncn3)c(Cl)c2)=NO1 (racemic) [Compound 94],100%,100%,
FC(F)(F)C1(c2cc(Cl)cc(Cl)c2)CC(c2ccc(-n3cncn3)c(Br)c2)=NO1 (racemic) [Compound 97],100%,100%,
FC(F)(F)C1(c2cc(Cl)cc(Cl)c2)CC(c2ccc(-n3cncn3)c(I)c2)=NO1 (racemic) [Compound 98],100%,100%,
Cc1cc(C2=NOC(c3cc(Cl)cc(Cl)c3)(C(F)(F)F)C2)ccc1-n1cncn1 (racemic) [Compound 99],100%,100%,
FC(F)(F)c1cc(C2=NOC(c3cc(Cl)cc(Cl)c3)(C(F)(F)F)C2)ccc1-n1cncn1 (racemic) [Compound 100],100%,100%,
COc1cc(C2=NOC(c3cc(Cl)cc(Cl)c3)(C(F)(F)F)C2)ccc1-n1cncn1 (racemic) [Compound 103],100%,100%,
CCC(=O)Nc1cc(C2=NOC(c3cc(Cl)cc(Cl)c3)(C(F)(F)F)C2)ccc1-n1cncn1 (racemic) [Compound 107],100%,100%,
COC(=O)Nc1cc(C2=NOC(c3cc(Cl)cc(Cl)c3)(C(F)(F)F)C2)ccc1-n1cncn1 (racemic) [Compound 109],100%,100%,
FC(F)(F)C1(c2cc(Cl)cc(Cl)c2)CC(c2ccc(-n3cncn3)nc2)=NO1 (racemic) [Compound 114],100%,100%,
FC(F)(F)c1cccc(C2(C(F)(F)F)CC(c3ccc(-n4cncn4)cc3)=NO2)c1 (racemic) [Compound 122],100%,100%,
N#Cc1cc(C2=NOC(c3cccc(C(F)(F)F)c3)(C(F)(F)F)C2)ccc1-n1cncn1 (racemic) [Compound 126],100%,100%,
O=[N+]([O-])c1cc(C2=NOC(c3cccc(C(F)(F)F)c3)(C(F)(F)F)C2)ccc1-n1cncn1 (racemic) [Compound 127],100%,100%,
FC(F)(F)c1cc(C(F)(F)F)cc(C2(C(F)(F)F)CC(c3ccc(-n4cncn4)cc3)=NO2)c1 (racemic) [Compound 132],100%,100%,
FC(F)(F)c1cc(C(F)(F)F)cc(C2(C(F)(F)F)CC(c3ccc(-n4cncn4)c(Br)c3)=NO2)c1 (racemic) [Compound 134],100%,100%,
O=[N+]([O-])c1cc(C2=NOC(c3cc(C(F)(F)F)cc(C(F)(F)F)c3)(C(F)(F)F)C2)ccc1-n1cncn1 (racemic) [Compound 136],100%,100%,
O=[N+]([O-])c1cc(C2=NOC(c3cccc(Cl)c3)(C(F)(F)F)C2)ccc1-n1cnnn1 (racemic) [Compound 147],100%,,

Compound,insecticidal ratio [1],insecticidal ratio [2],pest or weed control at 500 ppm [2]
FC(F)(F)C1(c2cc(Cl)cc(Cl)c2)CC(c2ccc(-n3cnnn3)c(Cl)c2)=NO1 (racemic) [Compound 150],100%,100%,
N#Cc1cc(C2=NOC(c3cc(Cl)cc(Cl)c3)(C(F)(F)F)C2)ccc1-n1cc([N+](=O)[O-])cn1 (stereo not drawn) [Compound 21],100%,100%,
O=[N+]([O-])c1cc(C2=NOC(c3cc(Cl)cc(Cl)c3)(C(F)(F)F)C2)ccc1-n1cc(F)cn1 (stereo not drawn) [Compound 25],100%,100%,
O=[N+]([O-])c1cc(C2=NOC(c3cc(Cl)cc(Cl)c3)(C(F)(F)F)C2)ccc1-n1ccnn1 (stereo not drawn) [Compound 64],100%,,
N#Cc1cc(C2=NOC(c3ccccc3)(C(F)(F)F)C2)ccc1-n1cncn1 (stereo not drawn) [Compound 80],100%,,
O=[N+]([O-])c1cc(C2=NOC(c3cc(F)cc(F)c3)(C(F)(F)F)C2)ccc1-n1cncn1 (stereo not drawn) [Compound 85],100%,,
FC(F)(F)C1(c2cccc(Cl)c2)CC(c2ccc(-n3cncn3)cc2)=NO1 (stereo not drawn) [Compound 86],100%,100%,
N#Cc1cc(C2=NOC(c3cccc(Cl)c3)(C(F)(F)F)C2)ccc1-n1cncn1 (stereo not drawn) [Compound 89],100%,100%,
"O=[N+]([O-])c1cc(C2=NOC(c3cc(Cl)cc(Cl)c3)(C(F)(F)F)C2)ccc1-n1cncn1 (stereo not drawn) [Compound 104, 1-{4-[5-[3,5-dichlorophenyl]-5-(trifluoromethyl)-4,5-dihydroisoxazol-3-yl]-2-nitrophenyl}-1H-1,2,4-triazole]",100%,,100%
"Nc1cc(C2=NOC(c3cc(Cl)cc(Cl)c3)(C(F)(F)F)C2)ccc1-n1cncn1 (stereo not drawn) [Compound 105, 5-[5-(3,5-dichlorophenyl)-5-(trifluoromethyl)-4,5-dihydroisoxazol-3-yl]-2-(1H-1,2,4-triazol-1-yl)aniline]",,,100%
"CC(=O)Nc1cc(C2=NOC(c3cc(Cl)cc(Cl)c3)(C(F)(F)F)C2)ccc1-n1cncn1 (stereo not drawn) [Compound 106, N-{5-[5-(3,5-dichlorophenyl)-5-(trifluoromethyl)-4,5-dihydroisoxazol-3-yl]-2-(1H-1,2,4-triazol-1-yl)phenyl}acetamide]",100%,,100%
"FC(F)(F)C1(c2cc(Cl)cc(Cl)c2)CC(c2ccc(-n3cnnc3)cc2)=NO1 (stereo not drawn) [Compound 141, 4-{4-[5-(3,5-dichlorophenyl)-5-(trifluoromethyl)-4,5-dihydroisoxazol-3-yl]phenyl}-4H-1,3,4-triazole]",,,100%
"FC(F)(F)C1(c2cc(Cl)cc(Cl)c2)CC(c2ccc(-n3cnnn3)cc2)=NO1 (stereo not drawn) [Compound 148, 1-{4-[5-(3,5-dichlorophenyl)-5-(trifluoromethyl)-4,5-dihydroisoxazol-3-yl]phenyl}-1H-tetrazole]",100%,,100%
FC(F)(F)C1(c2cc(Cl)cc(Cl)c2)CC(c2ccc(-n3cnnn3)c(Br)c2)=NO1 (stereo not drawn) [Compound 151],100%,100%,
FC(F)(F)C1(c2cc(Cl)cc(Cl)c2)CC(c2ccc(-n3cnnn3)c(I)c2)=NO1 (stereo not drawn) [Compound 152],,100%,
O=[N+]([O-])c1cc(C2=NOC(c3cc(Cl)cc(Cl)c3)(C(F)(F)F)C2)ccc1-n1cnnn1 (stereo not drawn) [Compound 154],100%,100%,
FC(F)(F)c1cc(C(F)(F)F)cc(C2(C(F)(F)F)CC(c3ccc(-n4cnnn4)cc3)=NO2)c1 (stereo not drawn) [Compound 162],,100%,
O=[N+]([O-])c1cc(C2=NOC(c3cccc(C(F)(F)F)c3)(C(F)(F)F)C2)ccc1-n1ncnn1 (stereo not drawn) [Compound 176],,100%,
